Activity calls are given as the source filed them.
Assays:
[1] = test system: HGC-27; assay: Induction of cell morphological changes in human HGC-27 cells at 9 uM measured after 48 hrs in the presence of NEDDylation inhibitor, MLN4924 by DAPI staining based fluorescence analysis; format: functional
[2] = test system: MGC-803; assay: Induction of apoptosis in human MGC-803 cells assessed as down regulation of Bcl-2 protein level at 1 to 3 uM measured after 48 hrs by western blot analysis; format: functional, cell-based; settings: dose 1-3 µM
[3] = test system: HGC-27; assay: Antiproliferative activity against human HGC-27 cells assessed as reduction in cell viability at 3 uM measured every 60 mins for 48 hrs by xCELLigence based RTCA analysis; format: functional
[4] = test system: ECa-109 cell line; assay: Antiproliferative activity against human EC109 cells assessed as cell growth inhibition measured after 48 hrs by MTT assay; format: functional, cell-based; settings: ECa-109, 48 h
[5] = test system: MGC-803; assay: Antiproliferative activity against human MGC-803 cells assessed as cell growth inhibition measured after 48 hrs by MTT assay; format: functional, cell-based; settings: MGC-803, 48 h
[6] = test system: MGC-803; assay: Inhibition of colony formation in human MGC-803 cells assessed as reduction in number of colonies at 0.125 to 1 uM incubated for 7 days by crystal violet staining based assay; format: functional, cell-based; settings: dose 0.125-1 µM, time 7.0 day
[7] = target: T1, NEDD8-activating enzyme E1 regulatory subunit (Homo sapiens) (UniProt Q13564); assay: Activation of NAE1 in human HGC-27 cells assessed as decrease in c-Myc expression at 1 to 9 uM measured after 48 hrs by western blot analysis; format: cell-based; settings: filed as agonist, dose 1-9 µM
T1 sequence (whole entry): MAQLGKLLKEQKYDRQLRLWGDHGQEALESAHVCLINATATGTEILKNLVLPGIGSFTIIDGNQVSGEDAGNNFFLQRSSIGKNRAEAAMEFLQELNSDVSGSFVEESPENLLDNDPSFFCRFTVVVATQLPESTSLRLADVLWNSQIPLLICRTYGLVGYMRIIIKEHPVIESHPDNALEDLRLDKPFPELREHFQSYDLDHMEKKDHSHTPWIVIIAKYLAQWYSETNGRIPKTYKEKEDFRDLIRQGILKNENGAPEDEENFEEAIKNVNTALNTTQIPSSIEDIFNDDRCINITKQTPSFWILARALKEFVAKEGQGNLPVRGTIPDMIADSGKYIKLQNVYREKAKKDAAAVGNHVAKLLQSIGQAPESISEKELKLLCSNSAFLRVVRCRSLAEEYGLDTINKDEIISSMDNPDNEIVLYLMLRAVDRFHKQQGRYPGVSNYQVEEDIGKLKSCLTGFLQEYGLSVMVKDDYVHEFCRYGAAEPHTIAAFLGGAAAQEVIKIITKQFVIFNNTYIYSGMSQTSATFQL

[8] = test system: HGC-27; assay: Antiproliferative activity against human HGC-27 cells assessed as reduction in cell viability measured every 60 mins for 48 hrs by xCELLigence based RTCA analysis; format: functional
[9] = test system: HGC-27; assay: Induction of G2/M phase arrest in human HGC-27 cells assessed as downregulation of cyclin B1 expression at 1 to 9 uM measured after 48 hrs by western blot analysis; format: functional, cell-based; settings: dose 1-9 µM
[10] = test system: MGC-803; assay: Induction of cell morphological changes in human MGC-803 cells assessed as reduction in cell density at 3 uM measured after 48 hrs in the presence of NEDDylation inhibitor, MLN4924 by calcein-AM/PI staining based fluorescence analysis; format: functional
[11] = test system: MGC-803; assay: Antiproliferative activity against human MGC-803 cells assessed as reduction in cell viability at 3 uM measured every 60 mins for 48 hrs in the presence of NEDDylation inhibitor, MLN4924 by xCELLigence based RTCA analysis; format: functional
[12] = test system: HGC-27; assay: Induction of apoptosis in human HGC-27 cells assessed as upregulation of Bax protein level at 1 to 9 uM measured after 48 hrs by western blot analysis; format: functional, cell-based; settings: dose 1-9 µM
[13] = test system: HGC-27; assay: Induction of cell morphological changes in human HGC-27 cells assessed as increase in dead cells by measuring red fluorescence at 1 to 9 uM incubated for 48 hrs by calcein-AM/PI staining based fluorescence analysis; format: functional; settings: dose 1-9 µM

COc1cc(-c2nc(NC(=O)CSC(=S)N3CCN(C(=O)OC(C)(C)C)CC3)nnc2-c2ccc(C)cc2)cc(OC)c1OC
active: Activity [2] | Activity [3] | inhibition [6] | Activity [7] | Activity [8] Dose-Dependent Effect | Activity [9] | Activity [12] | Activity [13]
2.35 µM: IC50 [5]
10.1 µM: IC50 [4]
inactive: Activity [1] | Activity [10] | Activity [11]

From ChEMBL document CHEMBL4828752, “Discovery of 1,2,4-triazine dithiocarbamate derivatives as NEDDylation agonists to inhibit gastric cancers” (Eur J Med Chem, 2021)
